Test results: patent US20190381017A1, “Compositions Comprising Serdexmethylphenidate Conjugates And Methods Of Use Thereof” (KemPharm, Inc., priority 2018, published 2019)
Counter-ions that a name gives are not always drawn. Marks after values point to notes of the source that are not given here.

Columns and labels:
[1] = system: recreational stimulant users; assay: Treatment-emergent adverse events, intravenous study (Example 2)
Protocol: A study was conducted in humans to assess the intravenous abuse potential of serdexmethylphenidate relative to unconjugated d-methylphenidate and placebo in recreational stimulant abusers. This was a Phase 1, randomized, double-blind study in which serdexmethylphenidate and d-methylphenidate were administered intravenously in recreational stimulant users with a history of non-oral abuse. In Part A of the study, subjects (Cohort 1) participated in a dose-escalation phase to determine the optimal dose of intravenous d-methylphenidate based on tolerability and abuse-related pharmacodynamic assessments. […] The doses of serdexmethylphenidate and d-methylphenidate are equivalent with respect to molar amount of d-methylphenidate. FDA-recommended abuse potential measures and blood samples were collected at different times after dosing. Safety assessments were performed throughout the study.

[2] = system: recreational stimulant users; assay: Intravenous abuse potential, VAS pharmacodynamic scores (Example 2); assay type: in vivo, human; settings: SDX Cl 30 mg, d-MPH HCl 15 mg, bipolar VAS
From the text: “Drug liking” score, used herein, is the score used to assess the degree that a human participant likes a drug effect at the time the question is being asked (that is, at the moment). It is scored using a 0 to 100 point bipolar visual analogue scale (VAS) anchored in the center with a neutral anchor of “neither like nor dislike” (score of 50), on the left with “strong disliking” (score of 0) and on the right with “strong liking” (score of 100).
“Euphoria” or “Feeling High” score, used herein, is the term to describe the score used to assess the degree that a human participant is high at the time the question is being asked (that is, at the moment). It is scored using a 0 to 100 point unipolar visual analogue scale (VAS) anchored on the left with “Not at All” (score of 0) and on the right with “Extremely” (score of 100).
“Take Drug Again” score, used herein, is the term to describe the score used to assess the degree that a human participant wants to take the drug again, if given the opportunity, based on his/her opinion now, i.e., at the time the question is being asked. It is scored using a 0 to 100 point unipolar visual analogue scale (VAS) anchored on the left with “Definitely Would Not” (score of 0) and on the right with “Definitely Would” (score of 100).
“Overall Drug Liking” score, used herein, is the term to describe the score used to assess the human subject's global perception of drug liking (i.e., the subjective effects over the whole course of the drug experience including any carryover effects). Subjects respond to the statement “Overall, my liking for this drug is.” The question is scored using a 0-100 point bipolar VAS anchored on the left with “Strong Disliking” (score of 0); “Neither Like nor Dislike” (score of 50) in the middle, and anchored on the right with “Strong Liking” (score of 100). This scale has the advantage of the human subject being relatively less affected or unaffected by acute study drug effects (if any) by the time of the assessment.
“Good Effects” score, used herein, is the term to describe the score used to assess the degree that a human participant is feeling good drug effects at the time the question is being asked (that is, at the moment). Subjects respond to the statement “At this moment, I can feel good drug effects.” It is scored using a 0 to 100 point unipolar visual analogue scale (VAS) anchored on the left with “Not at All” (score of 0) and on the right with “Extremely” (score of 100).
Safety assessments were performed throughout the study.

[3] = system: healthy, nondependent, recreational stimulant users; assay: Oral abuse potential, VAS pharmacodynamic scores (Example 4); settings: phentermine HCl 60 mg
[4] = SDX Cl 120 mg, Focalin XR 80 mg
[5] = SDX Cl 120 mg, Focalin XR 80 mg, bipolar VAS
[6] = SDX Cl 120 mg, Focalin XR 80 mg, unipolar VAS

COC(=O)[C@H](c1ccccc1)[C@H]1CCCCN1 [d-methylphenidate, methyl (R)-2-phenyl-2-((R)-piperidin-2-yl)acetate, reference compound]
typical stimulant-related Adverse Events (euphoric mood, hypervigilance, increased heart rate), frequency vs serdexmethylphenidate [1]: more common | Drug Liking Emax (mean) [2]: 84.3

CC(C)(N)Cc1ccccc1 [phentermine hydrochloride, reference compound]
Mean difference Any Effects Emax vs SDX Cl 120 mg ([3]; Focalin XR 80 mg): 37.4 | Mean difference Any Effects Emax vs SDX Cl 240 mg ([3]; Focalin XR 80 mg): 28.0 | Mean difference Bad Effects Emax vs SDX Cl 120 mg ([3]; Focalin XR 80 mg): 11.9 | Mean difference Bad Effects Emax vs SDX Cl 240 mg ([3]; Focalin XR 80 mg): 4.6 | Mean difference Drug Liking Emax vs SDX Cl 120 mg ([3]; Focalin XR 80 mg): 15.5 | Mean difference Drug Liking Emax vs SDX Cl 240 mg ([3]; Focalin XR 80 mg): 14.0 | Mean difference Feeling Alert/Drowsy Emax vs SDX Cl 120 mg ([3]; Focalin XR 80 mg): 15.7 | Mean difference Feeling Alert/Drowsy Emax vs SDX Cl 240 mg ([3]; Focalin XR 80 mg): 12.2 | Mean difference Feeling High Emax vs SDX Cl 120 mg ([3]; Focalin XR 80 mg): 36.0 | Mean difference Feeling High Emax vs SDX Cl 240 mg ([3]; Focalin XR 80 mg): 27.7 | Mean difference Good Effects Emax vs SDX Cl 120 mg ([3]; Focalin XR 80 mg): 35.5 | Mean difference Good Effects Emax vs SDX Cl 240 mg ([3]; Focalin XR 80 mg): 30.2 | Mean difference Overall Drug Liking Emax vs SDX Cl 120 mg ([3]; Focalin XR 80 mg): 14.9 | Mean difference Overall Drug Liking Emax vs SDX Cl 240 mg ([3]; Focalin XR 80 mg): 15.3 | Mean difference Take Drug Again Emax vs SDX Cl 120 mg ([3]; Focalin XR 80 mg): 14.9 | Mean difference Take Drug Again Emax vs SDX Cl 240 mg ([3]; Focalin XR 80 mg): 15.4 | Mean difference Any Effects Emax vs placebo [3, 4]: 48.5 | Mean difference Drug Liking Emax vs placebo [3, 4]: 22.3 | Mean difference Feeling Alert/Drowsy Emax vs placebo [3, 4]: 23.5 | Mean difference Feeling High Emax vs placebo [3, 4]: 46.4 | Mean difference Good Effects Emax vs placebo [3, 4]: 47.6 | Mean difference Overall Drug Liking Emax vs placebo [3, 4]: 18.6 | Mean difference Take Drug Again Emax vs placebo [3, 4]: 17.1 | Drug Liking Emax (mean) [3, 5]: 80.2 | Drug Liking Emax (median) [3, 5]: 84.0 | Feeling Alert/Drowsy Emax (mean) [3, 5]: 81.4 | Feeling Alert/Drowsy Emax (median) [3, 5]: 84.0 | Overall Drug Liking Emax (mean) [3, 5]: 73.4 | Overall Drug Liking Emax (median) [3, 5]: 77.0 | Take Drug Again Emax (mean) [3, 5]: 72.3 | Take Drug Again Emax (median) [3, 5]: 75.0 | Any Effects Emax (mean) [3, 6]: 69.2 | Any Effects Emax (median) [3, 6]: 74.0 | Bad Effects Emax (mean) [3, 6]: 17.9 | Bad Effects Emax (median) [3, 6]: 7.0 | Feeling High Emax (mean) [3, 6]: 65.3 | Feeling High Emax (median) [3, 6]: 76.0 | Good Effects Emax (mean) [3, 6]: 66.2 | Good Effects Emax (median) [3, 6]: 75.0 | Median difference Bad Effects Emax vs placebo [3]: 8.0^c

COC(=O)[C@H](c1ccccc1)[C@H]1CCCCN1C(=O)OC[n+]1cccc(C(=O)N[C@@H](CO)C(=O)O)c1 [serdexmethylphenidate]
Drug Liking Emax (mean) [2]: 56.6
